Measured values published in patent publication US9199989B2, “N—(imidazolidin-2-ylidene)quinoline derivatives as modulators of alpha 2 adrenergic receptors” (Allergan, Inc., priority 2011, dated 2015).

Molecular target: T1, Alpha 2C adrenergic receptor (Homo sapiens, UniProt P18825)
T1 construct: expressed in transfected cells
T1 sequence (P18825 1-462): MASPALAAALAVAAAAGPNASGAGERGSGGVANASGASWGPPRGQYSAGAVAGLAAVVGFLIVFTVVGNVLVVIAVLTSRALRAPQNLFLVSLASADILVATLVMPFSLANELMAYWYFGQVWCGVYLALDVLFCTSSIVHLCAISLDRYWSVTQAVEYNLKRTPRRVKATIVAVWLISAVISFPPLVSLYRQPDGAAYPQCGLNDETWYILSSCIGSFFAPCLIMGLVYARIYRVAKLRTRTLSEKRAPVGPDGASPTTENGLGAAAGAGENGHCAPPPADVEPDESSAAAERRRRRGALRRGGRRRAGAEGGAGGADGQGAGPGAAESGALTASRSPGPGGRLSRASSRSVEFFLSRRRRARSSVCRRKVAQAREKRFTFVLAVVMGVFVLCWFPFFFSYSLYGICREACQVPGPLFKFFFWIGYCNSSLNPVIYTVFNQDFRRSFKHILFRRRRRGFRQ
Experiment: RSAT (Receptor Selection and Amplification Technology) compound screening
Type: cell-based
Details: for EC50: cells expressing the alpha 2C adrenergic receptor, receptor-mediated growth response, read-out: Intrinsic Activity EC50, Alpha 2C; for Intrinsic Activity (efficacy), Alpha 2C: relative efficacy compared to a standard full agonist
Experimental: Cells expressing each of the alpha 2 adrenergic receptors alone were incubated with the various compounds and a receptor-mediated growth response was measured. The compound's activity was expressed as its relative efficacy compared to a standard full agonist (see Table 2).

| SMILES | EC50 [nM] | Intrinsic Activity (efficacy), Alpha 2C |
| --- | --- | --- |
| c1ccc2c(N=C3NCCN3)ccnc2c1 [Compound 1, N-(imidazolidin-2-ylidene)quinolin-4-amine] | 17.4 | (0.95) |
| Clc1c(N=C2NCCN2)cnc2ccccc12 [Compound 4, 4-Chloro-N-(imidazolidin-2-ylidene)quinolin-3-amine] | 368 | (0.66) |
| c1cnc2ncc(N=C3NCCN3)cc2n1 [Compound 6, N-(imidazolidin-2-ylidene)pyrido[2,3-b]pyrazin-7-amine] | 4580 | (0.44) |
| Cc1c(N=C2NCCN2)cnc2ccccc12 [Compound 3, N-(imidazolidin-2-ylidene)-4-methylquinolin-3-amine] | 1650 | (0.21) |
| Brc1c(N=C2NCCN2)cnc2ccccc12 [Compound 5, 4-Bromo-N-(imidazolidin-2-ylidene)quinolin-3-amine] | 1530 | (0.17) |
| Cc1c(N=C2NCCN2)cnc2nccnc12 [Compound 7, N-(imidazolidin-2-ylidene)-8-methylpyrido[2,3-b]pyrazin-7-amine] | 311 | (0.93) |
| Clc1c(N=C2NCCN2)cnc2cccnc12 [Compound 2, 4-Chloro-N-(imidazolidin-2-ylidene)-1,5-naphthyridin-3-amine] | 21 | (0.95) |
